From patent publication US11286278B2, “DPEP-1 binding agents and methods of use” (Arch Biopartners, Inc., priority 2018, dated 2022)
Ends that are not written are not given here.

Key:
[1] = target: T1, human DPEP2 (Homo sapiens, UniProt Q9H4A9); experiment: Immunofluorescence binding to Cos-1 cells transfected with human DPEP2; conditions: Alexa-488 conjugate
T1 construct: expressed in transfected cells; host or cells: Cos-1
Protocol: Cos-1 cells were transiently transfected with either 3 μg of human DPEP-1, DPEP2, or DPEP3 gene using Lipofectamine 2000 (Invitrogen) reagent in OptiMEM medium. 24 hours after transfection, DPEP-1, DPEP2, or DPEP3 expressing cells were re-seeded on collagen coated (neutralized) wells in 24 well plates and allowed to grow for 24 hours at 37° C. […] Cells were blocked with FBS/NBSA/Tween in PBS for 30 minutes on ice. Cells were then washed with PBS and incubated with LSALT or GFE-1, conjugated with Alexa-488 (green). After incubation, cells were washed with PBS and stained with DAPI for 5 minutes on ice. Cells were then washed with PBS and fixed using 4% paraformaldehyde and immunofluorescence microscopy was performed to assess binding. Representative photomicrographs are shown for each experimental condition (n=3) in FIG. 6A. Proteins from DPEP-1, DPEP2 and DPEP3 transfected cells were isolated after 48 hours using octyl-glucoside/RIPA lysis buffer and western blot analysis was performed to assess DPEP-1, DPEP2 and DPEP3 protein expression using specific antibodies; DPEP-1 antibody (Sigma), DPEP2 (Abcam) and DPEP3 (Santacruz). Blots were stripped and reprobed with an anti-β-actin.

[2] = test system: neutrophil adhesion in the hepatic sinusoids; experiment: Neutrophil adhesion in hepatic sinusoids after LPS, intravital microscopy; format: in vivo, mouse; conditions: LysM gfp mice, LPS 0.5 mg/kg i.p., peptide 1 mM i.v.
Protocol: Six to ten week old LysM^(gfp) mice were injected with 1 mM dose of LSALT or 1KGAL (control) (intravenous) 5 minutes after the injection of 0.5 mg/kg of lipopolysaccharide (intraperitoneal). After 3 hours, animals were injected with ketamine and xylazine to provide general anesthesia. Fluorescently conjugated F4/80 and PECAM-1 antibodies were then administered via jugular vein cannulation and intravital spinning disk confocal microscopy was performed. The livers were imaged for an hour and the number of neutrophils were counted at different time points. Neutrophils which were stationary for ≥30 seconds in the liver sinusoids were counted as adherent cells. Data are representative of three independent experiments. An unpaired 2-tailed student's t-test was performed comparing LSALT, […] control treated group against the LPS treated group (*p<0.05).

T1 sequence (Q9H4A9 33-463): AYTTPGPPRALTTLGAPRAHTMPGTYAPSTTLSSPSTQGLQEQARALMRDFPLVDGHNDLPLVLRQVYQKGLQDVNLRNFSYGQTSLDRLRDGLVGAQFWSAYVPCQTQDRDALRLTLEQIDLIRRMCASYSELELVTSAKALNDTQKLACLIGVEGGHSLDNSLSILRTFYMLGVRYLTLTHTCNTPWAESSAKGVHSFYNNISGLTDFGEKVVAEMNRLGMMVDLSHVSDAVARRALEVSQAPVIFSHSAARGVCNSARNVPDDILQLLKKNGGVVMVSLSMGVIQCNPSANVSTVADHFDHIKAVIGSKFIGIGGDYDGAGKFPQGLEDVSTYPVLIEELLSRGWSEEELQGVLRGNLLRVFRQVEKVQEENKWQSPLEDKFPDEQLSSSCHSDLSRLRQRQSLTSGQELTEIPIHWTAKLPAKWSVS

H-LSALTPSPSWLKYKAL [LSALT]
binding to human DPEP2 transfected Cos-1 cells [1]: does not Bind
neutrophil adhesion in the hepatic sinusoids [2]: inhibits neutrophil adhesion in the hepatic sinusoids
